Laboratory results from patent publication US6747039B2, “Aza-benzothiopyranoindazoles with antitumor activity” (Albany Molecular Research, Inc., priority 2002, dated 2004).

The molecules below were run on HeLa S-3 cells (assay: Inhibition of cell growth (sulforhodamine B) to determine GI50). Details: Homo sapiens, HeLa S3; HeLa cells; Table 5, aza-analogs; read-out: IC50 (aza-analogs).
Assay type: cell-based
Protocol: Growth inhibition (GI50) values were measured with HeLa S-3 cells selected for growth on plastic. The procedure was based on the protocol of Skehan et al. (Skehan, P., et al., J. Natl. Cancer Inst., 82:1107-1112 (1990), which is hereby incorporated by reference). HeLa cells were plated at 2×10^4 cells/well in 96 well plates. One day later, a control plate was fixed by addition of TCA to 5%. After five rinses with tap water, the plate was air dried and stored at 4° C. Test compounds were added to the remaining plates at 10-fold dilutions between 0.01 and 100 μM. Two days later, all plates were fixed as described above. Cells were then stained by the addition of 100 μl per well of 0.4% sulforhodamine B (SRB) in 1% acetic acid for 30 min at 4° C. Wells were then quickly rinsed 5× with acetic acid (1%) and allowed to air dry. The SRB was then solubilized by the addition of 100 μl per well of unbuffered 10 mM Tris base. Dye was quantified by measuring absorbance at 490 nm on a Molecular Devices kinetic microplate reader. Growth at each inhibitor concentration relative to the untreated control was calculated according to the following equation: percent growth=100×(T−To)/(C−To), where T was the average optical density (OD) of the test wells after 2 days of treatment, To was the average OD of the wells in the control plate on day 0 and C was the average OD of untreated wells. Plots of percent growth versus inhibitor concentration were used to determine the GI50.
The data below shown in Table 4 summarizes the in vitro cyclin/cdk inhibition constants (IC50) of HeLa Cells for the compounds of the current invention.

SMILES | IC50 [nM]
CCN(CC)CCNc1ccc(CNC=O)c2sc3ccncc3c(=O)c12 | 1000
CCN(CC)CCn1nc2c3c(c(CNC=O)ccc31)Sc1ccncc1-2 [drawing 114] | 200
CCN(CC)CCNc1ccc(CNS(C)(=O)=O)c2sc3ccncc3c(=O)c12 | 400
CCN(CC)CCn1nc2c3c(c(CNC=O)ccc31)Sc1ncccc1-2 [drawing 126] | 500
CCN(CC)CCNc1ccc(CNC(=O)OC)c2sc3ccncc3c(=O)c12 | 300
CCN(CC)CCn1nc2c3c(c(CNS(C)(=O)=O)ccc31)Sc1ccncc1-2 [drawing 118] | 300
CCN(CC)CCNc1ccc(CN)c2sc3ccncc3c(=O)c12 | 700
CCN(CC)CCn1nc2c3c(c(CN)ccc31)Sc1ccncc1-2 [drawing 112] | 200
CCN(CC)CCNc1cccc2sc3ccncc3c(=O)c12 | 3000
CCN(CC)CCn1nc2c3c(c(CNC(=O)OC)ccc31)Sc1ncccc1-2 [drawing 120] | 500
CCN(CC)CCn1nc2c3c(c(CNC(=O)OC)ccc31)Sc1ccncc1-2 [drawing 116] | 100
CCN(CC)CCn1nc2c3c(c(CN)ccc31)Sc1ncccc1-2 [drawing 124] | 200
CCN(CC)CCn1nc2c3c(c(CNS(C)(=O)=O)ccc31)Sc1ncccc1-2 [drawing 122] | 300
CCN(CC)CCn1nc2c3c(cccc31)Sc1ccncc1-2 | 1000

Same assay, conditions: Homo sapiens, HeLa S3; HeLa cells; Table 5, carbocyclic congeners; read-out: IC50 (carbocyclic congeners)

SMILES | IC50 [nM]
CCN(CC)CCNc1ccc(CN)c2sc3ccccc3c(=O)c12 [reference compound] | 600
CCN(CC)CCNc1cccc2sc3ccccc3c(=O)c12 [reference compound] | > 10000
CCN(CC)CCn1nc2c3c(c(CNS(C)(=O)=O)ccc31)Sc1ccccc1-2 [reference compound] | 900
CCN(CC)CCn1nc2c3c(cccc31)Sc1ccccc1-2 [reference compound] | 9000
CCN(CC)CCn1nc2c3c(c(CNC=O)ccc31)Sc1ccccc1-2 [reference compound] | 1000
CCN(CC)CCn1nc2c3c(c(CN)ccc31)Sc1ccccc1-2 [reference compound] | 1000
CCN(CC)CCn1nc2c3c(c(CNC(=O)OC)ccc31)Sc1ccccc1-2 [reference compound] | 3000
CCN(CC)CCNc1ccc(CNC=O)c2sc3ccccc3c(=O)c12 [reference compound] | 3000

Same assay, conditions: Homo sapiens, HeLa S3; Table 6, comparison of nitrogen position, first compound of pair

SMILES | GI50 [nM]
CCN(CC)CCn1nc2c3c(c(CNC=O)ccc31)Sc1ccncc1-2 [drawing 129] | 50
CCN(CC)CCNc1ccc(C)c2sc3ccncc3c(=O)c12 | 400
CCN(CC)CCn1nc2c3c(c(CNS(C)(=O)=O)ccc31)Sc1ccncc1-2 [drawing 133] | 200
CCN(CC)CCn1nc2c3c(c(C)ccc31)Sc1ccncc1-2 | 100
CCN(CC)CCn1nc2c3c(c(CNC(=O)OC)ccc31)Sc1ccncc1-2 [drawing 131] | 100
CCN(CC)CCn1nc2c3c(c(CN)ccc31)Sc1ccncc1-2 [drawing 127] | 200

Same assay, conditions: Homo sapiens, HeLa S3; Table 6, comparison of nitrogen position, second compound of pair

SMILES | GI50 [nM]
CCN(CC)CCNc1ccc(C)c2sc3ncccc3c(=O)c12 | 3000
CCN(CC)CCn1nc2c3c(c(CN)ccc31)Sc1ncccc1-2 [drawing 128] | 200
CCN(CC)CCn1nc2c3c(c(C)ccc31)Sc1ncccc1-2 | 600
CCN(CC)CCn1nc2c3c(c(CNC=O)ccc31)Sc1ncccc1-2 [drawing 130] | 500
CCN(CC)CCn1nc2c3c(c(CNC(=O)OC)ccc31)Sc1ncccc1-2 [drawing 132] | 500
CCN(CC)CCn1nc2c3c(c(CNS(C)(=O)=O)ccc31)Sc1ncccc1-2 [drawing 134] | 300
